According to patent US10670605B2, “Cysteine reactive probes and uses thereof” (The Scripps Research Institute, priority 2015, dated 2020):

What was measured:
Test in all cases: Competitive isoTOP-ABPP, cell lysates
Format in all cases: binding
[1] = target: T1, VCPIP1 C219 (Q96JH7) (Homo sapiens, UniProt Q96JH7); conditions: for R value (DMSO/fragment): 500 μM; for isoTOP-ABPP reactivity ratio, Q96JH7_C219 / isoTOP-ABPP reactivity profile ratio, Q96JH7_C219: 500 μm, in-vitro_ramos
T1 sequence (Q96JH7 1-1222): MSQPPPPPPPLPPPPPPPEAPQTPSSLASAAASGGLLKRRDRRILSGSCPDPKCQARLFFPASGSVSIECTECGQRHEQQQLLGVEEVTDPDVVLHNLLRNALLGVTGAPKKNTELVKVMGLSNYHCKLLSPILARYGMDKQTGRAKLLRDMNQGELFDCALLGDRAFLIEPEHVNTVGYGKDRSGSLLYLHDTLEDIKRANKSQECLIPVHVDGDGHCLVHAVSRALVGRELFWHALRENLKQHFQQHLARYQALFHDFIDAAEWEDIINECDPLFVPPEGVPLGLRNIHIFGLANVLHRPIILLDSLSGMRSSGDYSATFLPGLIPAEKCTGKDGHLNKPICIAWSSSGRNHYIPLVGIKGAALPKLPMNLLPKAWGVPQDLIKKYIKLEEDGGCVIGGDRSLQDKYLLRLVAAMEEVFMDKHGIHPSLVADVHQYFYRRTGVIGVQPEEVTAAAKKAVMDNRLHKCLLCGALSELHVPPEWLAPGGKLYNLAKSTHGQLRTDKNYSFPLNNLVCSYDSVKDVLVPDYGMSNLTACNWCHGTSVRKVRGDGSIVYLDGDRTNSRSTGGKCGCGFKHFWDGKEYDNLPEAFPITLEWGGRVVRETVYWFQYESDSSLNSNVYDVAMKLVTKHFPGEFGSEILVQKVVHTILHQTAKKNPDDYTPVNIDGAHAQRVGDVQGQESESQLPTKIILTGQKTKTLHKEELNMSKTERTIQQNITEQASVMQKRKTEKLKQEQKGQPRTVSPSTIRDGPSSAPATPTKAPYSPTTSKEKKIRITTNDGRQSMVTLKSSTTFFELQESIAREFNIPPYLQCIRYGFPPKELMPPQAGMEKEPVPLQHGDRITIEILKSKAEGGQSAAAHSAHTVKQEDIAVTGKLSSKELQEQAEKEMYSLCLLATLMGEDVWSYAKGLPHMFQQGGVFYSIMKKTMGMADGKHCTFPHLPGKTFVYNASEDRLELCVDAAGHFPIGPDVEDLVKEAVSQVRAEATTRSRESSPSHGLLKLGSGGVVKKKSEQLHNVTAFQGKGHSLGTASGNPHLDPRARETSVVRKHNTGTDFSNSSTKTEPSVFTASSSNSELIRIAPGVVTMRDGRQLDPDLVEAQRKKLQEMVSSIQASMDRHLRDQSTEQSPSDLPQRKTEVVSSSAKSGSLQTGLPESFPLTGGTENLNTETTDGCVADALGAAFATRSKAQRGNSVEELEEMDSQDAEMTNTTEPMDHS

[2] = target: EP300 C1738 (Q09472) (Homo sapiens, UniProt Q09472); conditions: for isoTOP-ABPP reactivity profile ratio, Q09472_C1738: 500 μm, in-vitro_ramos_231
Chain of EP300 C1738 (Q09472) (Q09472 whole entry): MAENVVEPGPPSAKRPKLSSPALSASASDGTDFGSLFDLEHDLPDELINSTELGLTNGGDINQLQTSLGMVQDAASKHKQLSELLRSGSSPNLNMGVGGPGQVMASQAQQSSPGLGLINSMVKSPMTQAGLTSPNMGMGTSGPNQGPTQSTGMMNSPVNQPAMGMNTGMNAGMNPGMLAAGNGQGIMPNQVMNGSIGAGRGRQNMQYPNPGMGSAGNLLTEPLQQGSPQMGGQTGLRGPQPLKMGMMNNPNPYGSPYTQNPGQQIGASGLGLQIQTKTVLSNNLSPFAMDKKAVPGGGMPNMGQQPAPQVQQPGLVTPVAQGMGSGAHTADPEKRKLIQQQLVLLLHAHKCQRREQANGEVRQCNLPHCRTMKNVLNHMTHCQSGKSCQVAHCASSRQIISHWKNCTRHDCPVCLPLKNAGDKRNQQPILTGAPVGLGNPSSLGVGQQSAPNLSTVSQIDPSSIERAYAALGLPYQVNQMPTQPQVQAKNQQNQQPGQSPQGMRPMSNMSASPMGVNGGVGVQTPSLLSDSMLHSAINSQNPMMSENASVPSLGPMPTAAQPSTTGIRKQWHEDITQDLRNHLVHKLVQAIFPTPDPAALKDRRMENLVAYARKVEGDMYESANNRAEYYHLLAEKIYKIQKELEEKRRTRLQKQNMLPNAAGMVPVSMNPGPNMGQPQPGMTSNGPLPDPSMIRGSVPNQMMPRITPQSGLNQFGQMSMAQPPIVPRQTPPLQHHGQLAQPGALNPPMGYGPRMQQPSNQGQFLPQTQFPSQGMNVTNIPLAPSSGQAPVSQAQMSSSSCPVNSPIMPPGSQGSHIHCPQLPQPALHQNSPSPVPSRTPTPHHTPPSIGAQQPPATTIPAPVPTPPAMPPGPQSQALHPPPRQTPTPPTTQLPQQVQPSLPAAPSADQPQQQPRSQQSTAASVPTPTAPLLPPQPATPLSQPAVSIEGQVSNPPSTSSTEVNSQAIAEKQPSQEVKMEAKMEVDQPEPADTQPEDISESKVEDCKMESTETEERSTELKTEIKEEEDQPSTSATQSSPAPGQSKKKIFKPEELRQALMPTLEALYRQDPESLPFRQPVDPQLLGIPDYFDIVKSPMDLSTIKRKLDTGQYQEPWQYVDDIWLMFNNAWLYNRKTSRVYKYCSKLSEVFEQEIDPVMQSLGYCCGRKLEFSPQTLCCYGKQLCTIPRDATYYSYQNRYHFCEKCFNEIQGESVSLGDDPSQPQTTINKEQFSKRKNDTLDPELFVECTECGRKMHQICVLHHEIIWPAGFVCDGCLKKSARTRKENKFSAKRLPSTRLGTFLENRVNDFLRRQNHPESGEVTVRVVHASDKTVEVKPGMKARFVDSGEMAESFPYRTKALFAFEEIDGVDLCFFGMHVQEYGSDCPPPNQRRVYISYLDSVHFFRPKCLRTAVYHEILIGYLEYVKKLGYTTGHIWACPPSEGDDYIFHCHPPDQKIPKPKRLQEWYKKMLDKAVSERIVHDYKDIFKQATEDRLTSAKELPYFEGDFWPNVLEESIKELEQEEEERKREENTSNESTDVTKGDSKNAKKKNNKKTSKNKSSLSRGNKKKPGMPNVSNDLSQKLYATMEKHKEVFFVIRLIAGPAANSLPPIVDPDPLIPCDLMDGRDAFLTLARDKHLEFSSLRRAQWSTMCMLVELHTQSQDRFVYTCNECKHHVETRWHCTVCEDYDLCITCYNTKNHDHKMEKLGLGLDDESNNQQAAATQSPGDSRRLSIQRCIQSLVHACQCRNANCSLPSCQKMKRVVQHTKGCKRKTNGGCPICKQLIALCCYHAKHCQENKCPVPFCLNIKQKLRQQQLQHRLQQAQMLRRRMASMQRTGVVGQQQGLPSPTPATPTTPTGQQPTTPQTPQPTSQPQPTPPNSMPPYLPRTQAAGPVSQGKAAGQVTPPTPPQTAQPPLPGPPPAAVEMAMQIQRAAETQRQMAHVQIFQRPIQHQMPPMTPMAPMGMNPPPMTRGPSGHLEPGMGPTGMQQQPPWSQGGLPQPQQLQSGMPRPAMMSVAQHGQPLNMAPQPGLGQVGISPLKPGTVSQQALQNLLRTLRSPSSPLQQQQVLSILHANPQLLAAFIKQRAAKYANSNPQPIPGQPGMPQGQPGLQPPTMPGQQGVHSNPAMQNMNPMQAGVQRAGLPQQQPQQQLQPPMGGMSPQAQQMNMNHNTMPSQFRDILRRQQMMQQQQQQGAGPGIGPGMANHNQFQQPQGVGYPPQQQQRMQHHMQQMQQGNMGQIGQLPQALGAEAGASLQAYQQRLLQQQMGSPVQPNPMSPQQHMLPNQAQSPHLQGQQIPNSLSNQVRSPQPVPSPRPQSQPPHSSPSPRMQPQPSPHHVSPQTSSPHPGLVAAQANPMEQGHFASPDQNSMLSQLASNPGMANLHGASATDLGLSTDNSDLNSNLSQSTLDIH

[3] = target: T2, NCF1 C378 (P14598) (Homo sapiens, UniProt P14598)
T2 sequence (P14598 1-390): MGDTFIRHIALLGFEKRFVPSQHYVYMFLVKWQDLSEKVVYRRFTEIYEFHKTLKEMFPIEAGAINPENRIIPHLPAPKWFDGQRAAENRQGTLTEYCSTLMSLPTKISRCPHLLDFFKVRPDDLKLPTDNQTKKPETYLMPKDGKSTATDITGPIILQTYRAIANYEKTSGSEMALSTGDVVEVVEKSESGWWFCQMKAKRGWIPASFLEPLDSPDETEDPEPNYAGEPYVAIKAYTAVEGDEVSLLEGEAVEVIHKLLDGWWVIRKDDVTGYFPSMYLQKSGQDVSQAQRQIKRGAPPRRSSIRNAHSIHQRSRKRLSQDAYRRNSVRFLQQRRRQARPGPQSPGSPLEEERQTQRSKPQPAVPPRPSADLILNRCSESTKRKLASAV

COc1ccc2c(c1)CCCN2C(=O)CCl [compound 2]
R value (DMSO/fragment) ([1]; invitro, ramos): 1.1
R value (DMSO/fragment) ([2]; 500 μM, invitro, ramos): 12.7
R value (DMSO/fragment) ([3]; 500 μM, invitro, ramos): 4.4

O=C(CCl)Nc1cc(C(F)(F)F)cc(C(F)(F)F)c1 [compound 3]
R value (DMSO/fragment) ([1]; in vitro, MDA-MB-231): 20.0
R value (DMSO/fragment) ([1]; invitro, ramos): 15.1
R value (DMSO/fragment) ([3]; 500 μM, invitro, ramos): 2.1

COc1ccc(C2CC(c3cccs3)=NN2C(=O)CCl)cc1 (stereo not shown) [compound 4]
R value (DMSO/fragment) ([3]; 250 μM, in vitro, Ramos): 1.4

C=CC(=O)N(c1ccccc1)c1ccc(Br)cc1 [compound 5]
isoTOP-ABPP ratio, Q09472_C1738 ([2]; 500 μM, invitro, ramos): 20.0
isoTOP-ABPP ratio, P14598_C378 ([3]; 500 μM, invitro, ramos): 4.0

O=C(CCl)N1CCN(S(=O)(=O)c2ccccc2F)CC1 [compound 10]
isoTOP-ABPP ratio, P14598_C378 ([3]; 500 μM, invitro, ramos): 1.1

O=C(CCl)NCCc1c[nH]c2ccccc12 [compound 13]
isoTOP-ABPP ratio, Q09472_C1738 ([2]; 500 μM, invitro, ramos): 0.7
isoTOP-ABPP ratio, P14598_C378 ([3]; 500 μM, invitro, ramos): 0.7

C=CC(=O)N(Cc1cccnc1)c1ccc(Oc2ccccc2)c(C(F)(F)F)c1 [compound 15]
isoTOP-ABPP ratio (reactivity profile), Q96JH7_C219 ([1]; 500 μm in-vitro ramos): 1.3

O=C(CCl)N1CCC(C(O)(c2ccccc2)c2ccccc2)CC1 [compound 20]
isoTOP-ABPP ratio (reactivity profile), Q96JH7_C219 ([1]; 500 μm in-vitro ramos): 1.2
isoTOP-ABPP ratio (reactivity profile), Q09472_C1738 ([2]; 500 μm in-vitro ramos): 3.2

CC(Br)C(=O)Nc1cc(C(F)(F)F)cc(C(F)(F)F)c1 (stereo not shown) [compound 24]
isoTOP-ABPP ratio (reactivity profile), Q96JH7_C219 ([1]; 500 μm in-vitro ramos): 1.2

CC(Cl)C(=O)Nc1cc(C(F)(F)F)cc(C(F)(F)F)c1 (stereo not shown) [compound 25]
isoTOP-ABPP ratio (reactivity profile), Q09472_C1738 ([2]; 500 μm in-vitro ramos_231): 1.6

CC(C)CCOCCNC(=O)CCl [compound 27]
isoTOP-ABPP ratio (reactivity profile), Q96JH7_C219 ([1]; 500 μm in-vitro ramos_231): 1.7
isoTOP-ABPP ratio (reactivity profile), Q09472_C1738 ([2]; 500 μm in-vitro ramos_231): 1.0

O=C(CCl)N1CCN(CC(=O)N2CCOCC2)CC1 [compound 29]
isoTOP-ABPP ratio (reactivity profile), Q09472_C1738 ([2]; 500 μm in-vitro ramos_231): 1.3

C=CC(=O)N(Cc1cccnc1)c1cc(C(F)(F)F)cc(C(F)(F)F)c1 [compound 31]
isoTOP-ABPP reactivity ratio, Q96JH7_C219 [1]: 1.0

C=CC(=O)Nc1cc(F)c(N2CCN(C(=O)OC(C)(C)C)CC2)c(F)c1 [compound 38]
isoTOP-ABPP reactivity ratio, Q96JH7_C219 [1]: 1.8

C=CC(=O)Nc1cc(C)c(Br)cc1C [compound 40]
isoTOP-ABPP reactivity ratio, Q96JH7_C219 [1]: 1.9

COc1cc(NC(=O)CCl)cc(OC)c1 [compound 43]
isoTOP-ABPP reactivity profile ratio, Q09472_C1738 [2]: 2.2
isoTOP-ABPP reactivity profile ratio, P14598_C378 ([3]; 500 μm, in-vitro_ramos): 1.2

O=C(CCl)Nc1cccc2ncccc12 [compound 51]
isoTOP-ABPP reactivity profile ratio, Q96JH7_C219 [1]: 2.3

O=C(CCl)Nc1ccc(-c2ccccc2)cc1 [compound 52]
isoTOP-ABPP reactivity profile ratio, Q96JH7_C219 [1]: 1.6
isoTOP-ABPP reactivity profile ratio, Q09472_C1738 [2]: 1.1
